# Assay results from US20230330151A1, “COMPOSITION FOR PROMOTING DIFFERENTIATION OF NEURAL STEM CELLS INTO DOPAMINERGIC NEURONS” (CHA UNIVERSITY INDUSTRY-ACADEMIC COOPERATION FOUNDATION, priority 2020, published 2023).
# Legend:
# FMD-NPCs = assay: Differentiation rate by subculture number, TH expression measured by fluorescence intensity; assay type: cell-based, human; details: FIG. 11; as the cells were subcultured
# Excerpt: For each group, neural stem cells (A) subcultured less than 10 times, (B) subcultured 10 or more times and 20 or less times, (C) subcultured 20 or more times were used to compare average values, to compare and analyze differentiation rates according to a subcultured number.
# [1] = system: FMD-NSPCs (fetal midbrain derived neural stem/progenitor cells); assay: Differentiation of neural stem cells into dopaminergic neurons, immunochemical staining for TH and Tuj1; assay type: cell-based, human; details: FIG. 3; FA: 0.1 mM; over time of differentiation
smiles,measurement,setting,value
"CCCCc1ccc(C(=O)O)nc1 [FA alone, 5-butylpicolinic acid]",rate of differentiation into TH,FMD-NPCs,gradually decreased
same,Tuj1 expression,[1],increased over time
same,expression of TH,[1],decreased over time
